IC50 data for five molecules are collected here from ChEMBL document CHEMBL4699417, “Leishmania infantum isolates exhibit high infectivity and reduced susceptibility to amphotericin B” (RSC Med Chem, 2020).

By IC50 is commonly meant the concentration that gives 50% inhibition.

In test [1] the test system is Leishmania infantum. As to the kind of experiment: Antileishmanial activity against promastigote form of Leishmania infantum MHOM/BR/2002/LPC-RPV assessed as decrease in parasite viability measured after 72 hrs by resazurin assay. A general note: The colour change of resazurin is a common sign of viable cells or microbes.
Test [2] deals with Leishmania infantum. Put plainly: Antileishmanial activity against promastigote form of Leishmania infantum MCAN_UY_2015_gPL8 isolate assessed as decrease in parasite viability measured after 72 hrs by resazurin assay.
Test [3] concerns Leishmania infantum. As to the kind of experiment: Antileishmanial activity against promastigote form of Leishmania infantum MCAN_UY_2015_bPL7 isolate assessed as decrease in parasite viability measured after 72 hrs by resazurin assay.
Test [4] concerns Leishmania infantum. Put plainly: Antileishmanial activity against promastigote form of Leishmania infantum MCAN_UY_2015_gCH2 isolate assessed as decrease in parasite viability measured after 72 hrs by resazurin assay.
Test [5] concerns Leishmania infantum. As to the kind of experiment: Antileishmanial activity against promastigote form of Leishmania infantum MCAN_UY_2015_mCO8 isolate assessed as decrease in parasite viability measured after 72 hrs by resazurin assay.
Test [6] has as its system Leishmania infantum. Put plainly: Antileishmanial activity against promastigote form of Leishmania infantum MCAN_UY_2015_bCH11 isolate assessed as decrease in parasite viability measured after 72 hrs by resazurin assay.
For test [7], the system named is Leishmania infantum. As to the kind of experiment: Antileishmanial activity against amastigote form of Leishmania infantum MHOM/BR/2002/LPC-RPV assessed as decrease in parasite viability measured after 72 hrs by resazurin assay. It is filed as functional, organism-based.
The subject of test [8] is Leishmania infantum. As to the kind of experiment: Antileishmanial activity against amastigote form of Leishmania infantum MCAN_UY_2015_gPL8 isolate assessed as decrease in parasite viability measured after 72 hrs by resazurin assay. It is filed as functional, organism-based.
In test [9] the test system is Leishmania infantum. Put plainly: Antileishmanial activity against amastigote form of Leishmania infantum MCAN_UY_2015_bPL7 isolate assessed as decrease in parasite viability measured after 72 hrs by resazurin assay. It is filed as functional, organism-based.
Test [10] deals with Leishmania infantum. As to the kind of experiment: Antileishmanial activity against amastigote form of Leishmania infantum MCAN_UY_2015_gCH2 isolate assessed as decrease in parasite viability measured after 72 hrs by resazurin assay. Format: functional, organism-based.
The subject of test [11] is Leishmania infantum. As to the kind of experiment: Antileishmanial activity against amastigote form of Leishmania infantum MCAN_UY_2015_bCH11 isolate assessed as decrease in parasite viability measured after 72 hrs by resazurin assay. Format: functional, organism-based.
In test [12] the test system is Leishmania infantum. Put plainly: Antileishmanial activity against amastigote form of Leishmania infantum MCAN_UY_2015_mCO8 isolate assessed as decrease in parasite viability measured after 72 hrs by resazurin assay. Format: functional, organism-based.

With `CC1CS(=O)(=O)CCN1/N=C/c1ccc([N+](=O)[O-])o1` (stereo not given) [NIFURTIMOX], the IC50 with Leishmania infantum [1] turned out to be 6.3 µM; with Leishmania infantum [2] it was 6 µM; in the test on Leishmania infantum [3], 6.5 µM; with Leishmania infantum [4], 6.7 µM; in the test with Leishmania infantum [5] it was 6.7 µM; in the test on Leishmania infantum [6], 6.5 µM.
In the case of `C[C@@H]1[C@H](O)[C@@H](C)/C=C/C=C/C=C/C=C/C=C/C=C/C=C/[C@H](O[C@@H]2O[C@H](C)[C@@H](O)[C@H](N)[C@@H]2O)C[C@@H]2O[C@](O)(C[C@@H](O)C[C@@H](O)[C@H](O)CC[C@@H](O)C[C@@H](O)CC(=O)O[C@H]1C)C[C@H](O)[C@H]2C(=O)O` [AMPHOTERICIN B], the IC50 with Leishmania infantum [1] was 6.5 µM; in the test on Leishmania infantum [2] it was 24.4 µM; in the test with Leishmania infantum [3], 24.9 µM; in the test on Leishmania infantum [4], 24.8 µM; in the test with Leishmania infantum [5] it was 12.7 µM; with Leishmania infantum [6] it was 24.6 µM.
Consider MEGLUMINE ANTIMONATE, for which the IC50 with Leishmania infantum [7] worked out at 50.1 µM; in the test on Leishmania infantum [8], 50.1 µM; with Leishmania infantum [9], 50.2 µM; in the test with Leishmania infantum [10], 50.4 µM; in the test with Leishmania infantum [11] it was 50.5 µM; in the test on Leishmania infantum [12] it was 51 µM.
Turning to `CC[C@H](C)C(=O)O[C@H]1C[C@@H](C)C=C2C=C[C@H](C)[C@H](CC[C@@H]3C[C@@H](O)CC(=O)O3)[C@H]21` [LOVASTATIN], the concentration for half-maximal inhibition (IC50) with Leishmania infantum [1] was 12.9 µM; with Leishmania infantum [2] it was 25.4 µM; with Leishmania infantum [3], 25.3 µM; in the test with Leishmania infantum [4], 25.3 µM; in the test with Leishmania infantum [5] it was 25.4 µM; in the test with Leishmania infantum [6] it was 25.3 µM.
Take `CCCCCCCCCCCCCCCCOP(=O)([O-])OCC[N+](C)(C)C` [MILTEFOSINE]: the half-inhibitory concentration (IC50) came out at 5.3 µM with Leishmania infantum [1]; 4.1 µM with Leishmania infantum [2]; 3.6 µM in the test with Leishmania infantum [3]; 4.1 µM with Leishmania infantum [4]; 3.4 µM in the test with Leishmania infantum [5]; 3.8 µM with Leishmania infantum [6].
